Laboratory results as given in publication PMC4774911, “Biochemical Screening of Five Protein Kinases from Plasmodium falciparum against 14,000 Cell-Active Compounds” (PLoS ONE, 2016).
Where “and” joins values, the source holds several entries; their conditions need not be identical. Equal entries are not always repeated.

Columns and labels:
Assay in all cases: biochemical
AURKB = AURKB (Homo sapiens, UniProt Q96GD4)
CABC1 = CABC1 (Homo sapiens, UniProt Q8NI60)
CDK9 = CDK9 (Homo sapiens, UniProt P50750)
CDK9, sequence (P50750 whole entry): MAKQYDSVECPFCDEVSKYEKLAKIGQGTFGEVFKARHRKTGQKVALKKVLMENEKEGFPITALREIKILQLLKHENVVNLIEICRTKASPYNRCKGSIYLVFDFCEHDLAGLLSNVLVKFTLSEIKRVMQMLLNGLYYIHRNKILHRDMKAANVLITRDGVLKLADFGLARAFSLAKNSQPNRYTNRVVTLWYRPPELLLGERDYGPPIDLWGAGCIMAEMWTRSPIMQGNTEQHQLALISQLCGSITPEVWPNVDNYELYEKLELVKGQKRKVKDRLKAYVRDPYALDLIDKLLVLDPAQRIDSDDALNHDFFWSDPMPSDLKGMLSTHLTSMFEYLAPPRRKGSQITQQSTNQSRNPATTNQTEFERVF

CHUK = target: T1, CHUK (Homo sapiens, UniProt O15111)
T1 sequence (O15111 1-745): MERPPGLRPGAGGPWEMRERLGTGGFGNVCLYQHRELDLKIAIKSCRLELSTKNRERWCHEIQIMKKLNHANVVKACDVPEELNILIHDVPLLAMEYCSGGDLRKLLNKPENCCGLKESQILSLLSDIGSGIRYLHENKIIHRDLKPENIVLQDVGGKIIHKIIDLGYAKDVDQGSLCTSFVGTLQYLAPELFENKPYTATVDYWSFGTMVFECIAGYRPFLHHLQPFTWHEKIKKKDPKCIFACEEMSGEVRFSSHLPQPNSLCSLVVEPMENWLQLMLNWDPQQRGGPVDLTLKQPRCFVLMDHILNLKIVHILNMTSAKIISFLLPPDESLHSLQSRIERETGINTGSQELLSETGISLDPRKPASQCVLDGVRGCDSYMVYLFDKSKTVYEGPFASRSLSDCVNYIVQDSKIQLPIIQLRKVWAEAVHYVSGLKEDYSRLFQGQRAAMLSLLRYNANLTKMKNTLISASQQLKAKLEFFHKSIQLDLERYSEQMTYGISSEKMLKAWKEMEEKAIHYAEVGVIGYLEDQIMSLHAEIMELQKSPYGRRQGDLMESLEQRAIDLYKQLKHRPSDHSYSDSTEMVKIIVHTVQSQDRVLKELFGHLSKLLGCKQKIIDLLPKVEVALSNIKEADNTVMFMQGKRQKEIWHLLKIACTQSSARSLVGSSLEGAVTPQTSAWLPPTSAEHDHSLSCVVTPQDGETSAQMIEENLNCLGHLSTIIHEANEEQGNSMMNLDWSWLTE

PRKX = target: T2, PRKX (Homo sapiens, UniProt P51817)
T2 sequence (P51817 1-358): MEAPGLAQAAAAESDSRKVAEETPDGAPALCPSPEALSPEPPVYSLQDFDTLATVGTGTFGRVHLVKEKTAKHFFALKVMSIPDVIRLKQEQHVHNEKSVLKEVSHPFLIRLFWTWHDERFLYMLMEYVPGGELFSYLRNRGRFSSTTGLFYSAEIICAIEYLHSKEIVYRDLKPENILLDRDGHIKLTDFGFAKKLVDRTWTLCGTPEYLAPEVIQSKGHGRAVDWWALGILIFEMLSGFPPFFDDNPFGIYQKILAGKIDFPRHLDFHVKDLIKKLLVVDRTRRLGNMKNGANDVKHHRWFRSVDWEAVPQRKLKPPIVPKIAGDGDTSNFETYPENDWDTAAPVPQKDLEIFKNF

TP53RK = target: T3, TP53RK (Homo sapiens, UniProt Q96S44)
T3 sequence (Q96S44 1-253): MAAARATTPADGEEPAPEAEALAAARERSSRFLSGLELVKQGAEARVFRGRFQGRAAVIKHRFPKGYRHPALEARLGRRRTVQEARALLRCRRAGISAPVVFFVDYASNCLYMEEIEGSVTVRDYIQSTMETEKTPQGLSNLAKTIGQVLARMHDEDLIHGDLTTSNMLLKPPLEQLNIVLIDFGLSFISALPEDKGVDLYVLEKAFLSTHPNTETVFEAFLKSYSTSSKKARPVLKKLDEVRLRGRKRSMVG

TTK = target: T4, TTK (Homo sapiens, UniProt P33981)
T4 sequence (P33981 1-857): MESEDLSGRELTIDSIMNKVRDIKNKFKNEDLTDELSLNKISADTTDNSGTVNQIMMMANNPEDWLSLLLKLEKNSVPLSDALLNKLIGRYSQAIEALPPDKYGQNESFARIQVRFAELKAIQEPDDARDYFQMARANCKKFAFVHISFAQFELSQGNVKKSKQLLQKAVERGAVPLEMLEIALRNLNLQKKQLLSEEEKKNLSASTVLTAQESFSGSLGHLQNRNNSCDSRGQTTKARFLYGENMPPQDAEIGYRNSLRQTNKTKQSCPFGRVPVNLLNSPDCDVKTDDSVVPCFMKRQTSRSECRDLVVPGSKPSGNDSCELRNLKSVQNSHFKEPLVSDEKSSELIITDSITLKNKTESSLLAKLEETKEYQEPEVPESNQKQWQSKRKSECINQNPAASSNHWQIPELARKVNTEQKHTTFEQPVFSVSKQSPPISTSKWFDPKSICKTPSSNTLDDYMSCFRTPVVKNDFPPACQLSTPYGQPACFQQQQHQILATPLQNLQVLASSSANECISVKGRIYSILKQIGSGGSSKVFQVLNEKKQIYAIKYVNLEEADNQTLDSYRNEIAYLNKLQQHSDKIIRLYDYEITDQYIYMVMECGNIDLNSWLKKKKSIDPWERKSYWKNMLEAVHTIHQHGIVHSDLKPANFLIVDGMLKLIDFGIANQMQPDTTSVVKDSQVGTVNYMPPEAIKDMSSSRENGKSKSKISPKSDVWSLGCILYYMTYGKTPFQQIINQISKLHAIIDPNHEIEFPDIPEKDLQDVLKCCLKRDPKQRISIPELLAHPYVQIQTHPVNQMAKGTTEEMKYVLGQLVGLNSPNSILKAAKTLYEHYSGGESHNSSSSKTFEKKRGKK

AURKB, sequence (Q96GD4 whole entry): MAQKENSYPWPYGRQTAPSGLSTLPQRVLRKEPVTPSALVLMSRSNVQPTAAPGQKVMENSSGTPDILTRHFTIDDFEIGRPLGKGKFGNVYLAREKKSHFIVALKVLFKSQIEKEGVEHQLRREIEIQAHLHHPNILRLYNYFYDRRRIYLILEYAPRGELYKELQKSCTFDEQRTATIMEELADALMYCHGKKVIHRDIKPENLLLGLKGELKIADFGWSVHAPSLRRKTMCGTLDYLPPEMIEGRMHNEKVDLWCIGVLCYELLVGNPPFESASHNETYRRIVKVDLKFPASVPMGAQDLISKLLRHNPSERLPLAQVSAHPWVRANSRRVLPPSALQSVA
CABC1, sequence (Q8NI60 whole entry): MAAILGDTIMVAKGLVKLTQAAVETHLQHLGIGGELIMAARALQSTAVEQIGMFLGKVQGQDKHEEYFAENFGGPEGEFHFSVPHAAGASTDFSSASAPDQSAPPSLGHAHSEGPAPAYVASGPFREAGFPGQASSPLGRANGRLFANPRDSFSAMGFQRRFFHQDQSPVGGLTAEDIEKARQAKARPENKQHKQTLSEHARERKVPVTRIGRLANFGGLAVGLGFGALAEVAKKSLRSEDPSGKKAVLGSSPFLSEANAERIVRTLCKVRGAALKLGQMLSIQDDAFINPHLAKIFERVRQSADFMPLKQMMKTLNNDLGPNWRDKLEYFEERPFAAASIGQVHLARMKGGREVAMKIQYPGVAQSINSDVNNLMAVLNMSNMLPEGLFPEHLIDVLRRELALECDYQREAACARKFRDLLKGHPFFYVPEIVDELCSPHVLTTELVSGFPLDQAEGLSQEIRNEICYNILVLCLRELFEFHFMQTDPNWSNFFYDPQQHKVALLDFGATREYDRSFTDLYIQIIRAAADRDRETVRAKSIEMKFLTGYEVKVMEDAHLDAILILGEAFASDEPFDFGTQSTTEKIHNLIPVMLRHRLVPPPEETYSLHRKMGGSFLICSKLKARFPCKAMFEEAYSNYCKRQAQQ

SMILES | IC50 (AURKB) | IC50 (CABC1) [µM] | IC50 (CDK9) | IC50 (CHUK) [µM] | IC50 (PRKX) [µM] | IC50 (TP53RK) [µM] | IC50 (TTK)
CN1CCN(c2ccc(Nc3ncc(C#N)c(Nc4ccccc4C(N)=O)n3)cc2)CC1.Cl [TCMDC-134116] | 40 nM and 64 nM | > 20 | 1.1 µM and 0.75 µM | > 20 | 1.3 | 4 | 540 nM and 440 nM
Cl.NCC1(c2nc(-c3ccc(Cl)c(O)c3)c(-c3ccncc3)[nH]2)CCCCC1 [TCMDC-141154] | > 20000 nM | > 20 | > 20 µM | > 20 | > 20 | > 20 | > 20000 nM
CN(C)CC(O)COc1ccc(Nc2ncc([N+](=O)[O-])c(Nc3ccccc3O)n2)cc1.O=C(O)C(F)(F)F (stereo not drawn) [TCMDC-141399] | 4200 nM | > 20 | 5.3 µM and 7.3 µM | > 20 | > 20 | > 20 | > 20000 nM
